From PMC8753592, “Long-acting capsid inhibitor protects macaques from repeat SHIV challenges” (Nature, 2021)
Several values for one entry are separate records, joined by “and”; a condition that tells them apart may be missing. Equal entries are not always repeated. Where two headings read alike, the source gives them in different places.

What was measured:
[1] = test system: SHIV-SF162P3; assay: microbe, parasite or virus in culture; format: cell-based, SHIV (in rhesus macaque, Macaca mulatta, PBMCs)
Description: Freshly isolated PBMCs from three male rhesus macaque (M. mulatta) donors of Indian origin (HumanCells Biosciences) were cultured in RPMI-1640 cell culture medium (Life Technologies) supplemented with 10% heat-inactivated FBS (Hyclone), 2 mM glutamine and 100 U ml^−1 penicillin plus 100 μg ml^−1 streptomycin (complete RPMI). Before their use in the antiviral assays, rhesus PBMCs from three independent donors were pooled and activated at a density of 3 × 10^6 cells per ml for 72 h at 37 °C by the addition of 1 μg ml^–1 phytohemagglutinin (PHA, Sigma-Aldrich) and 50 U ml^−1 recombinant human interleukin-2 (IL-2) (Roche Diagnostics).
PHA/IL-2-stimulated rhesus PBMCs were infected in bulk culture with SHIV-SF162P3 at a concentration of 130 pg of p27 equivalent per million PBMCs. The cells were maintained in suspension by gently rocking the cultures mixed with virus inoculum for 3 h at 37 °C. The cells were then pelleted by centrifugation at 500g for 5 min, washed twice with complete RPMI to remove any unadsorbed virus and seeded into 96-well plates at a cell density of 2 × 10^5 cells per well in 100 μl. […] The cultures were incubated in a 5% CO2 incubator at 37 °C for 7 days. Cell-free supernatants derived from the PBMC cultures were harvested 7 days after infection, the amount of SHIV present was quantified using an SIV p27 antigen-capture ELISA assay (5436, Advanced Bioscience Laboratories) performed according to the manufacturer’s protocol, and the data were acquired using SoftMax Pro 6.3.1 software (Molecular Devices).

[2] = test system: HIV capsid; conditions: ref Link et al, Nature, 2020;[16]; cited from earlier work
[3] = ref Link et al, Nature, 2020;[16]; cited from earlier work
[4] = target: CA precursor (Gag polyprotein); conditions: ref Link et al, Nature, 2020;[16]; read-out: Binding Affinity (KD), CA precursor (Gag polyprotein); cited from earlier work
[5] = ref Link et al, Nature, 2020;[16]; cited from earlier work; remark: listed apart in the source
[6] = test system: CA mutant L56I; conditions: ref Link et al, Nature, 2020;[16]; cited from earlier work
[7] = test system: CA mutant M66I; conditions: ref Link et al, Nature, 2020;[16]; cited from earlier work
[8] = in vivo, sc; cited from earlier work
[9] = test system: HIV-1; conditions: cited from earlier work; for average LEN plasma concentration as multiple of human paEC95: 9 days after dose administration
[10] = target: CA monomer; conditions: ref Link et al, Nature, 2020;[16]; read-out: Binding Affinity (KD), CA monomer; cited from earlier work
[11] = test system: HIV-1 isolates; conditions: ref Link et al, Nature, 2020;[16]; read-out: EC50, human PBMCs, HIV-1 isolates; cited from earlier work
[12] = ref Link et al, Nature, 2020;[16], cited from earlier work
[13] = target: CA pentamer; conditions: ref Link et al, Nature, 2020;[16]; read-out: Binding Affinity (KD), CA pentamer; cited from earlier work
[14] = test system: CA mutant N74D; conditions: ref Link et al, Nature, 2020;[16]; cited from earlier work
[15] = target: CA hexamer; conditions: ref Link et al, Nature, 2020;[16]; read-out: Binding Affinity (KD), CA hexamer; cited from earlier work
[16] = single experiments n1–n7, SIV p27 ELISA day 7, read-out: SHIV162P3-rhPBMC-EC50, individual experiments

O=C(NCc1c(F)cc(F)cc1F)c1cn2c(c(O)c1=O)C(=O)N1[C@H]3CC[C@H](C3)O[C@@H]1C2 [BIC, reference compound]
EC50 ([1]; mean of 7 assays, SIV p27 ELISA day 7 post-infection, read-out: EC50, rhesus PBMCs, SHIV-SF162P3): 1.34 nM | EC50 [1, 16]: 0.78 nM and 0.9 nM and 1.77 nM and 1.85 nM and 0.55 nM and 1.25 nM and 2.26 nM

CC(C)(C#Cc1ccc(-c2ccc(Cl)c3c(NS(C)(=O)=O)nn(CC(F)(F)F)c23)c([C@H](Cc2cc(F)cc(F)c2)NC(=O)Cn2nc(C(F)(F)F)c3c2C(F)(F)[C@@H]2C[C@H]32)n1)S(C)(=O)=O [LEN, Lenacapavir, reference compound]
EC50 ([1]; Simian immunodeficiency virus, PBMC, in Macaca mulatta, 168 h, read-out: EC50, rhesus PBMCs, SHIV-SF162P3, mean of 7 assays, SIV p27 ELISA day 7 post-infection): 0.39 nM | EC50 ([1]; read-out: SHIV162P3-rhPBMC-EC50, individual experiments, single experiments n1–n7, SIV p27 ELISA day 7): 0.37 nM and 0.26 nM and 0.49 nM and 0.27 nM and 0.69 nM and 0.43 nM | EC50 [1, 16]: 0.23 nM | Inhibits nuclear import (early-stage) [2]: Yes | Inhibits proper capsid assembly (late-stage) [2]: Yes | Inhibits virus production (late-stage) [2]: Yes | T1/2, human cryopreserved hepatocytes [3]: 202 h | Kd [4]: 1.1 nM | Predicted Hepatic Clearance, rate, primary human hepatocytes [5]: 0.17 mL/min/kg | In vitro fold-resistance (CA mutant/wild-type), L56I [6]: 239 | In vitro fold-resistance (CA mutant/wild-type), M66I [7]: >3,200 | duration of mean exposure of more than six times human paEC95 [8]: at least 6 months | average LEN plasma concentration as multiple of human paEC95 ([9]; 20 mg dose): 0.7 times the human paEC95 | average LEN plasma concentration as multiple of human paEC95 ([9]; 50 mg dose): 1.1 times the human paEC95 | participants with capsid mutation Q67H detected ([9]; long-acting LEN monotherapy, phase 1b): 2 of 29 | maximum decline in HIV-1 RNA ([9]; long-acting formulation, after 9 days of monotherapy): 2.3 log10 | Kd [10]: 2.5 nM | EC50 [11]: 0.05 nM | Kinetic solubility at pH 2.0 ([12]; pH 2.0): <1, <1 μM | Kinetic solubility at pH 7.4 ([12]; pH 7.4): <1, <1 μM | Kd [13]: 0.22 nM | In vitro fold-resistance (CA mutant/wild-type), N74D [14]: 22 | Kd [15]: 0.24 nM
